# *1 amine or outer side, *2 acyl side, *3 side chain or, on linkers, in order; H or OH if unused. Where a SMILES comes first, the peptide text is derived from it. Bridges are numbered along the chain shown (N, C = ends). Side-chain parts run from the residue outwards. [ ]: non-standard residue; d: D form. The star is where a group is joined. X39 = O=C(O)CCCCCCCCCCCCCCCCC(=O)NC(CCC(=O)NCCCCCOCC(=O)*)C(=O)O; PEG12 = NCCOCCOCCOCCOCCOCCOCCOCCOCCOCCOCCOCCOCCC(=O)O; Trp(7-Me) = Cc1cccc2c(C[C@H](N)C(=O)O)c[nH]c12; C18 diacid = O=C(O)CCCCCCCCCCCCCCCCC(=O)*; γGlu = O=C(O)[C@H](CCC(=O)[*:2])N[*:1]; 2Nal = N[C@@H](Cc1ccc2ccccc2c1)C(=O)O; AEF = NCCOc1ccc(C[C@H](N)C(=O)O)cc1; X2 = C[N+](C)(C)C[C@@H](CC(=O)O)N*; 3Pal = N[C@@H](Cc1cccnc1)C(=O)O; NMeK = CN[C@@H](CCCCN)C(=O)O; Pen = CC(C)(S)[C@H](N)C(=O)O; Suc = O=C(CCC(=O)[*:2])[*:1]; Thp = NC1(C(=O)O)CCOCC1; X1 = C[N+](C)(C)CCCCC*; AEEA = NCCOCCOCC(=O)O; Sar = CNCC(=O)O
# Assays:
# [1] = test system: IL-23-stimulated phosphorylated STAT3 in peripheral blood mononuclear cells (PBMCs); assay: PBMC pSTAT3 Assay; type: cell-based; conditions: PBMCs from healthy donors; 30 min preincubation with peptide; IL-23 5 ng/mL for 30 min; phospho-STAT3 by MSD
# Procedure, shortened: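 Healthy-donor PBMCs expanded 4 days on anti-CD3 with 100 ng/mL IL-1β, starved ~4 h in RPMI-0.1% BSA, preincubated 30 min with peptide, then stimulated 30 min at 37 °C with 5 ng/mL IL-23. Lysate pSTAT3 measured by MSD phospho-STAT panel; IC50 derived.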
# [2] = target: T1, IL-23R (Homo sapiens, UniProt Q5VWK5); assay: IL23R Reporter Assay; type: cell-based; conditions: HEK293 cells containing IL-23R, IL-12Rβ1 and STAT-inducible firefly luciferase reporter; 10 ng/mL IL-23 (EC90); 5 h
# T1 construct: HEK293 cells containing IL-23R, IL-12Rβ1 and a firefly luciferase reporter gene driven by a STAT-inducible promoter (Promega); host or cells: HEK293
# T1 sequence (Q5VWK5 24-629): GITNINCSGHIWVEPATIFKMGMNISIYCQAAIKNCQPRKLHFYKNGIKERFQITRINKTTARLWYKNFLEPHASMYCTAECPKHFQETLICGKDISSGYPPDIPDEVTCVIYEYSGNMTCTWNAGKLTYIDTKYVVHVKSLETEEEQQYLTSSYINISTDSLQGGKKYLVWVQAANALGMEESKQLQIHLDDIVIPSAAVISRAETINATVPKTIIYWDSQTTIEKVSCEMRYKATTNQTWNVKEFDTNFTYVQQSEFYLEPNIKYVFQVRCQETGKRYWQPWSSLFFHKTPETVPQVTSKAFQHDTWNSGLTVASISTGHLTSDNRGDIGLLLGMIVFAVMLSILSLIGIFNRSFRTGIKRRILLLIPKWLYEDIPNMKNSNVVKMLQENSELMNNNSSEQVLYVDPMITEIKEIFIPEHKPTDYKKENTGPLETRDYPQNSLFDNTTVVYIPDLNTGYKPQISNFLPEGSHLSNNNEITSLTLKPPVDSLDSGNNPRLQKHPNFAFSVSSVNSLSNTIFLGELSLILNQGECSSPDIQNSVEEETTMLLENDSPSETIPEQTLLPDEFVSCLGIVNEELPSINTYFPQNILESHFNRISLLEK
# Procedure, shortened: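 HEK293 cells carrying IL-23R, IL-12Rβ1 and a STAT-driven firefly luciferase reporter (4000 cells/well) received compound, then 10 ng/mL IL-23 solution (EC90), and were incubated for 5 h at 37° C. BioGlo luminescence was normalised to IL-23 alone (0%) and 30 μM control inhibitor (100%). IC50 came from a 4-parameter Hill fit.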
Compound,IC50 [1] [nM],IC50 [2] [nM]
"CC(=O)NCCCC[C@@H]1NC(=O)[C@H](Cc2c[nH]c3c(C)cccc23)NC(=O)[C@H]([C@@H](C)O)NC(=O)[C@H](CC(N)=O)NC(=O)[C@@H](NC(C)=O)C(C)(C)SSC(C)(C)[C@@H](C(=O)N[C@@H](Cc2ccc(OCCN)cc2)C(=O)N[C@@H](Cc2ccc3ccccc3c2)C(=O)NC2(C(=O)N[C@@H](CCC(=O)O)C(=O)N[C@@H](CC(N)=O)C(=O)N[C@@H](Cc3cccnc3)C(=O)N(C)CC(=O)OCCOCCOCCNC(=O)COCCOCCNC(=O)CC[C@H](NC(=O)CCCCCCCCCCCCCCCCC(=O)O)C(=O)O)CCOCC2)NC1=O [compound 147, MeCO-Pen(3)-N-T-7MeW-K(Ac)-Pen(3)-AEF-2Nal-THP-E-N-3Pya-Sar-CO(PEG2PEG2gEC18OH)]",0.5 to 5,≥ 500
"CC(=O)NCCCC[C@@H]1NC(=O)[C@H](Cc2c[nH]c3c(C)cccc23)NC(=O)[C@H]([C@@H](C)O)NC(=O)[C@H](CCCCNC(=O)CCC(=O)N[C@H](CC(=O)O)C[N+](C)(C)C)NC(=O)[C@@H](NC(=O)[C@@H](CCCNC(=N)N)NC(C)=O)C(C)(C)SSC(C)(C)[C@@H](C(=O)N[C@@H](Cc2ccc(OCCNC(=O)COCCOCCNC(=O)COCCOCCNC(=O)CC[C@H](NC(=O)CCCCCCCCCCCCCCCCC(=O)O)C(=O)O)cc2)C(=O)N[C@@H](Cc2ccc3ccccc3c2)C(=O)NC2(C(=O)N[C@@H](CCC(=O)O)C(=O)N[C@@H](CC(N)=O)C(=O)N[C@@H](Cc3cccnc3)C(=O)N(C)CC(N)=O)CCOCC2)NC1=O [compound 10, MeCO-r-Pen(3)-K(d)-T-7MeW-K(Ac)-Pen(3)-AEF(PEG2PEG2gEC18OH)-2Nal-THP-E-N-3Pya-Sar-CONH2] (Ac-[dR][Pen]K([Suc-X2])T[Trp(7-Me)]K(Ac)[Pen][AEF]([AEEA-AEEA-γGlu-C18 diacid])[2Nal][Thp]EN[3Pal][Sar]-NH2; disulfide 2-7)",0.5 to 5,< 50
"CC(=O)NCCCC[C@@H]1NC(=O)[C@H](Cc2c[nH]c3c(C)cccc23)NC(=O)[C@H]([C@@H](C)O)NC(=O)[C@H](CC(N)=O)NC(=O)[C@@H](NC(=O)[C@@H](CCCNC(=N)N)NC(C)=O)C(C)(C)SSC(C)(C)[C@@H](C(=O)N[C@@H](Cc2ccc(OCCCCC[N+](C)(C)C)cc2)C(=O)N[C@@H](Cc2ccc3ccccc3c2)C(=O)NC2(C(=O)N[C@@H](CCCCNC(=O)CCOCCOCCOCCOCCOCCOCCOCCOCCOCCOCCOCCOCCNC(=O)CC[C@H](NC(=O)CCCCCCCCCCCCCCCCC(=O)O)C(=O)O)C(=O)N[C@@H](CC(N)=O)C(=O)N[C@@H](Cc3cccnc3)C(=O)N(C)CC(=O)N(C)C)CCOCC2)NC1=O [compound 123, cPEG3aCO-Pen(3)-N(N(Me)2)-T-7MeW-K(NMeAc)-Pen(3)-TMAPF-2Nal-THP-K(PEG12gEC18OH)-N-3Pya-Sar-CON(Me)2] (Ac-[dR][Pen]NT[Trp(7-Me)]K(Ac)[Pen]Y(X1)[2Nal][Thp]K([PEG12-γGlu-C18 diacid])N[3Pal][Sar]-NMe2; disulfide 2-7)",< 0.5,< 50
"CC(=O)NCCCC[C@@H]1NC(=O)[C@H](Cc2c[nH]c3c(C)cccc23)NC(=O)[C@H]([C@@H](C)O)NC(=O)[C@H](CC(N)=O)NC(=O)[C@@H](NC(=O)[C@@H](CCCNC(=N)N)NC(C)=O)C(C)(C)SSC(C)(C)[C@@H](C(=O)N[C@@H](Cc2ccc(OCCN)cc2)C(=O)N[C@@H](Cc2ccc3ccccc3c2)C(=O)NC2(C(=O)N[C@@H](CCCCNC(=O)CCC(=O)N[C@H](CC(=O)O)C[N+](C)(C)C)C(=O)N[C@@H](CC(N)=O)C(=O)N[C@@H](Cc3cccnc3)C(=O)N(C)[C@@H](CCCCNC(=O)COCCOCCNC(=O)COCCCCCNC(=O)CCC(NC(=O)CCCCCCCCCCCCCCCCC(=O)O)C(=O)O)C(N)=O)CCOCC2)NC1=O (some centres unmarked) [compound 41, MeCO-r-Pen(3)-N-T-7MeW-K(Ac)-Pen(3)-AEF-2Nal-THP-K(d)-N-3Pya-NMeK(PEG2PEG2gEC18OH)-CONH2] (Ac-[dR][Pen]NT[Trp(7-Me)]K(Ac)[Pen][AEF][2Nal][Thp]K([Suc-X2])N[3Pal][NMeK]([AEEA-X39])-NH2; disulfide 2-7)",< 0.5,50 to 500
"CC(=O)NCCCC[C@@H]1NC(=O)[C@H](Cc2c[nH]c3c(C)cccc23)NC(=O)[C@H]([C@@H](C)O)NC(=O)[C@H](CC(N)=O)NC(=O)[C@@H](NC(C)=O)C(C)(C)SSC(C)(C)[C@@H](C(=O)N[C@@H](Cc2ccc(OCCN)cc2)C(=O)N[C@@H](Cc2ccc3ccccc3c2)C(=O)NC2(C(=O)N[C@@H](CCC(=O)O)C(=O)N[C@@H](CC(N)=O)C(=O)N[C@@H](Cc3cccnc3)C(=O)N(C)CC(=O)N[C@@H](CCCCNC(=O)COCCOCCNC(=O)COCCOCCNC(=O)CC[C@H](NC(=O)CCCCCCCCCCCCCCCCC(=O)O)C(=O)O)C(N)=O)CCOCC2)NC1=O [compound 160, cPEG3aCO-r-Pen(3)-N-T-7MeW-K(Ac)-Pen(3)-AEF-2Nal-THP-E-N-3Pya-Sar-K(PEG2PEG2gEC18OH)-CONH2]",< 0.5,50 to 500
"CC(=O)NCCCC[C@@H]1NC(=O)[C@H](Cc2c[nH]c3c(C)cccc23)NC(=O)[C@H]([C@@H](C)O)NC(=O)[C@H](CC(N)=O)NC(=O)[C@@H](NC(=O)[C@@H](CCCCNC(=O)CCOCCOCCOCCOCCOCCOCCOCCOCCOCCOCCOCCOCCNC(=O)CC[C@H](NC(=O)CCCCCCCCCCCCCCCCC(=O)O)C(=O)O)NC(C)=O)C(C)(C)SSC(C)(C)[C@@H](C(=O)N[C@@H](Cc2ccc(OCCN)cc2)C(=O)N[C@@H](Cc2ccc3ccccc3c2)C(=O)NC2(C(=O)N[C@@H](CCC(=O)O)C(=O)N[C@@H](CC(N)=O)C(=O)N[C@@H](Cc3cccnc3)C(=O)N(C)CC(N)=O)CCOCC2)NC1=O [compound 117, MeCO-k(PEG12gEC18OH)-Pen(3)-N-T-7MeW-K(Ac)-Pen(3)-AEF-2Nal-THP-E-N-3Pya-Sar-CONH2] (Ac-[dK]([PEG12-γGlu-C18 diacid])[Pen]NT[Trp(7-Me)]K(Ac)[Pen][AEF][2Nal][Thp]EN[3Pal][Sar]-NH2; disulfide 2-7)",< 0.5,< 50
"CC(=O)NCCCC[C@@H]1NC(=O)[C@H](Cc2c[nH]c3c(C)cccc23)NC(=O)[C@H]([C@@H](C)O)NC(=O)[C@H](CCCCNC(=O)CCC(=O)N[C@H](CC(=O)O)C[N+](C)(C)C)NC(=O)[C@@H](NC(=O)[C@H](CCCNC(=N)N)NC(C)=O)C(C)(C)SSC(C)(C)[C@@H](C(=O)N[C@@H](Cc2ccc(OCCN)cc2)C(=O)N[C@@H](Cc2ccc3ccccc3c2)C(=O)NC2(C(=O)N[C@@H](CCC(=O)O)C(=O)N[C@@H](CC(N)=O)C(=O)N[C@@H](Cc3cccnc3)C(=O)N(C)[C@@H](CCCCNC(=O)COCCOCCNC(=O)COCCOCCNC(=O)CC[C@H](NC(=O)CCCCCCCCCCCCCCCCC(=O)O)C(=O)O)C(N)=O)CCOCC2)NC1=O [compound 30, MeCO-r-Pen(3)-K(d)-T-7MeW-K(Ac)-Pen(3)-AEF-2Nal-THP-E-N-3Pya-NMeK(PEG2PEG2gEC18OH)-CONH2] (Ac-R[Pen]K([Suc-X2])T[Trp(7-Me)]K(Ac)[Pen][AEF][2Nal][Thp]EN[3Pal][NMeK]([AEEA-AEEA-γGlu-C18 diacid])-NH2; disulfide 2-7)",< 0.5,< 50

# Source: US20260250320A1, “LIPIDATED PEPTIDE INHIBITORS OF INTERLEUKIN-23 RECEPTOR” (Janssen Pharmaceutica NV, priority 2023, published 2026)
